Laboratory results taken from the NIST ThermoML archive (doi:10.1016/j.jct.2010.11.006).
Numbers after ± are expanded uncertainties.

How the values were obtained:
[1] = molar enthalpy of vaporization or sublimation; details: 298.15 K; Crystal; Calver Calorimeter- drop method
[2] = Molar enthalpy of transition or fusion; details: Crystal; DSC
[3] = Crystal; for Normal melting temperature: DTA

With `O=c1[nH]sc2ccccc12` [1,2-benzisothiazol-3(2H)-one] as the compound, how does the molar enthalpy [1] read?
The molar enthalpy was 112 ± 5 kJ/mol.

What about the “Molar enthalpy of transition or fusion” value [2] of the same compound?
The value was 20.9 ± 0.49 kJ/mol.

What about the Normal melting temperature [3] of the same compound?
The Normal melting temperature was 155.64 ± 0.39 °C.

With `O=C1CSc2ccccc2N1` [2H-1,4-benzothiazin-3(4H)-one] as the compound, how does the “Molar enthalpy of transition or fusion” value [2] read?
The value was 25.3 ± 0.6 kJ/mol.

And the “molar enthalpy of sublimation” value ([3]; 298.15 K, Calver Calorimeter- drop method)?
The value was 118 ± 7.6 kJ/mol.

And the Normal melting temperature [3]?
Its Normal melting temperature is 178.24 ± 0.39 °C.
